Measurements taken from PubChem BioAssay (NCI).
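48-hour exposure; five concentrations; linearly interpolated endpoints. At the GI50, growth is halved. At the TGI there is no net growth.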

Tests used:
Assay in all cases: growth of human tumour cells (NCI), 48 h
[1] = tested on: MDA-MB-231 breast
[2] = tested on: OVCAR-8 ovarian
[3] = tested on: HS 578T breast
[4] = tested on: SF-295 CNS
[5] = tested on: PC-3 prostate
[6] = tested on: SK-MEL-5 melanoma
[7] = tested on: LOX IMVI melanoma
[8] = tested on: DU-145 prostate
[9] = tested on: HL-60(TB) leukemia
[10] = tested on: UO-31 renal

Row | Compound | GI50 [1] [µM] | TGI [1] [µM] | GI50 [2] [µM] | TGI [2] [µM] | GI50 [3] [µM] | TGI [3] [µM] | GI50 [4] [µM] | TGI [4] [µM] | GI50 [5] [µM] | TGI [5] [µM] | GI50 [6] [µM] | TGI [6] [µM] | GI50 [7] [µM] | TGI [7] [µM] | GI50 [8] [µM] | TGI [8] [µM] | GI50 [9] [µM] | TGI [9] [µM] | GI50 [10] [µM] | TGI [10] [µM]
1 | O=C(Nc1n[nH]c2cc(-c3cc(F)ccc3F)ccc12)C1CC1 | 19.5 | > 25 | > 22 | > 25 | 13.1 | > 25 | 16.9 | > 25 | 17.6 | > 25 | 8.09 | > 25 | 14.4 | > 25 | 17.7 | > 25 | 7.81 | > 25 | 16.1 | > 25
2 | CC(C)(C)C[C@H]1N[C@@H](C(=O)NC2CCC(O)CC2)[C@H](c2cccc(Cl)c2F)[C@@]12C(=O)Nc1cc(Cl)ccc12 (stereo not given in full) | 1.82 | 4.41 | 14.8 | 39.4 | 6.51 | 56.8 | 3.46 | 13.6 | 3.65 | 13.5 | 1.41 | 3.19 | 0.577 | 18.1 | 11.8 | 24.3 | 2.66 | 7.06 | 0.646 | 11.1
3 | Cc1cccc(C2NC(=O)c3ccccc3N2)c1 (stereo not given) |  | > 87.6 |  | > 100 |  | 65.1 |  | > 23.2 |  | > 100 |  | > 100 |  | > 100 |  | > 100 |  | > 27.2 |  | > 100
4 | CCCCCCCC(=O)OCC/C=C/C1OC1C1OC(=O)/C=C\C=C\C(=O)N(C(C)=O)C(=O)/C=C(/C)CCC2OC2C1OC(=O)NC(C)=O (stereo not given) | 10.5 | > 25 | 3.64 | 16.6 | 5.22 | 15.8 | 2.16 | 9.9 | 3.15 | 8.04 | 7.03 | > 25 | 2.93 | 6.74 | 4.45 | 16.2 | 8.18 | > 25 | 1.82 | 10.8
5 | Cn1c(I)c(C#C[Si](C)(C)C)c(=O)n(C(=O)c2ccccc2)c1=O | 5.22 | 11.8 | 12.4 | 26.1 | 7.12 | 23.6 | 21.5 | 48.7 | 3.52 | 13.5 | 2.76 | 9.15 | 2.79 | 8.26 | 1.95 | 3.78 | 1.52 | > 51.5 | 2.66 | 11.9
6 | Cc1ccc(/C(=N/Nc2ccc([N+](=O)[O-])cc2)Sc2cc(Cl)c(C)cc2S(N)(=O)=O)cc1 | 0.8 | 2.24 | 7.38 | > 100 | 2.45 | > 23.5 | 1.75 | 3.39 | 1.79 | 4.47 | 1.78 | 5.56 | 1.49 | 3.45 | 1.75 | 4.1 | 11.9 | 42.1 | 2.56 | 10.7
7 | O=C(Nc1sc2c(c1C(=O)O)CCCC2)c1ccco1 | > 50 | > 50 | > 50 | > 50 | > 50 | > 50 | 26.3 | > 50 | 45.9 | > 50 | > 50 | > 50 | 22.8 | > 50 | > 50 | > 50 | > 50 | > 50 | > 50 | > 50
